According to patent publication US8455544B2, “Synthetic triterpenoids and methods of use in the treatment of disease” (Reata Pharmaecuticals, Inc., priority 2008, dated 2013):
Like-named read-outs stand apart in the source and are kept apart here.

Assays:
[1] = cynomolgus monkey, in vivo, po, 4.1 mg/kg
RAW264.7 macrophages = test: Cell viability, WST-1 reagent; format: cell-based; settings: Mus musculus, RAW264.7 (20 ng/ml IFNγ)
[2] = test system: IFNγ-induced NO production in RAW264.7 macrophages; test: Suppression of IFNγ-induced NO production (Griess reagent system); format: cell-based; settings: Mus musculus; RAW264.7, pre-treated 2 hours, then 20 ng/ml IFNγ for 24 hours
[3] = test system: NQO1 in Hepa1c1c7 murine hepatoma cells; settings: concentration required to induce a two-fold increase in expression of NQO1, Hepa1c1c7 cells; cited from earlier work
[4] = design: unit not given here; settings: six-month, cited from earlier work

| Compound | IC50 (RAW264.7 macrophages) | IC50 [2] | NQO1 CD [3] | further results |
| --- | --- | --- | --- | --- |
| COC(=O)[C@]12CCC(C)(C)C[C@H]1[C@H]1C(=O)C=C3[C@@]4(C)C=C(C#N)C(=O)C(C)(C)[C@@H]4CC[C@@]3(C)[C@]1(C)CC2 [Form B] | – | – | – | Bioavailability compared with Form A [1]: higher |
| CC1(C)CC[C@]2(C(=O)O)CC[C@]3(C)[C@H](C(=O)C=C4[C@@]5(C)C=C(C#N)C(=O)C(C)(C)[C@@H]5CC[C@]43C)[C@@H]2C1 [RTA 401, 2-cyano-3,12-dioxooleane-1,9(11)-dien-28-oic acid] | > 200 nM | ~10 nM | 2.3 nM | – |
| CC1(C)CC[C@]2(C(=O)n3ccnc3)CC[C@]3(C)[C@H](C(=O)C=C4[C@@]5(C)C=C(C#N)C(=O)C(C)(C)[C@@H]5CC[C@]43C)[C@@H]2C1 [RTA 403] | 100 nM | ~0.6 nM | 3.3 nM | – |
| CC1(C)CC[C@]2(C(=O)NCC(F)(F)F)CC[C@]3(C)[C@H](C(=O)C=C4[C@@]5(C)C=C(C#N)C(=O)C(C)(C)[C@@H]5CC[C@]43C)[C@@H]2C1 [RTA 404] | 100 nM | 5.8 nM | – | – |
| CCNC(=O)[C@]12CCC(C)(C)C[C@H]1[C@H]1C(=O)C=C3[C@@]4(C)C=C(C#N)C(=O)C(C)(C)[C@@H]4CC[C@@]3(C)[C@]1(C)CC2 [RTA 405] | ~200 nM | 6 nM | – | – |
| N[C@@H](CC(=O)N1CCn2c(nnc2C(F)(F)F)C1)Cc1cc(F)c(F)cc1F [Sitagliptin] | – | – | – | Change (Hemoglobin A1c) ([4]; +/− metformin with A1c ≧ 7.5, mean A1c 8.9, duration of DM 4.4 years): −0.7; Change (Hemoglobin A1c) ([4]; +/− placebo with A1c ≧ 7.0, mean A1c 8.0, duration of DM 4.3 years): −0.8; Change (Hemoglobin A1c) ([4]; pioglitazone +/− sitagliptin, A1c ≧ 7.0, mean A1c 8.1, duration of DM 6.1 years): −0.7 |
| CC1(C)CC[C@]2(C#N)CC[C@]3(C)[C@H](C(=O)C=C4[C@@]5(C)C=C(C#N)C(=O)C(C)(C)[C@@H]5CC[C@]43C)[C@@H]2C1 [TP-225] | 75 nM | ~0.4 nM | 0.28 nM | – |
| Pramlintide acetate | – | – | – | Change (Hemoglobin A1c) ([4]; +/− insulin, mean A1c 9.1, duration of DM 13 years): −0.4 |
